Consider 9 substances from US9597407B2, “Targeted antimicrobial moieties” (C3 Jian, Inc., priority 2009, dated 2017).

One assay deals with bacteria. Description: Binding of targeting peptides to microorganisms (Table 3). The following applies: peptide binding in aqueous buffers that varied depending on peptide solubility; preferably 1x PBS.
Assay [1] concerns microorganisms. As to the kind of experiment: Morphology, biofilm and growth disruption by peptides (Table 5). It counts as cell-based. Details: key: A: Peptide aggregates; B: Less hyphal formation; Clumps; Diffuse clumps and small polyps; F: Diffuse growth; H: Thin; I: Growth inhibition; Microcolony formation; Rippled; Small polyps; Thick; W: Halo formation on top, microlonies on bottom. The source says:
In certain embodiments peptides that induce alterations in phenotype or other biological activities can also be used as antimicrobial effector moieties.

For assay [2], the system named is microorganisms. As to the kind of experiment: Peptide activities: binding, antimicrobial, growth or phenotype altering (Table 8). The source says: In certain embodiments, peptides described herein can have multiple activities. Thus for example, a peptide can have both binding/targeting activity and antimicrobial activity. Such peptides can be used, e.g., in a chimeric construct, for any or all of these properties. Thus, for example, a peptide designated “B” in Table 8 can be used as a targeting peptide. If it is also designated G or M it can also be used for antimicrobial activity.

“Also recorded” adds a separate entry of the source.

Take “PF-540 (KSILILIKVIFIGQTTIIL; Peptide with targeting and/or antimicrobial activity)”: in the assay with bacteria, the “Target(s) (microorganisms bound by the targeting peptide)” value is given as “C. albicans”. Besides, the “Organism, effect (morphology, biofilm and growth disruption)” value was “E. coli (R)” with microorganisms [1] (E. coli), “MRSA (H)” with microorganisms [1] (MRSA), “S. epidermidis (H)” with microorganisms [1] (S. epidermidis) and “S. pneumoniae (R)” in the assay with microorganisms [1] (S. pneumoniae). For the same substance, in the assay with microorganisms [2], the Activities entry was “G B”.

Consider “PF-542 (KKDNPSLNDQDKNAVLNLLALAK; Peptide with targeting and/or antimicrobial activity)”, for which the “Target(s) (microorganisms bound by the targeting peptide)” value in the assay on bacteria was “C. jeikeium”. In the assay with microorganisms [1] (S. pneumoniae), the “Organism, effect (morphology, biofilm and growth disruption)” value was “S. pneumoniae (H)”. Further, the Activities result in the assay on microorganisms [2] is “G B”.

Turning to “PF-546 (PIIAPTIKTQIQ; Peptide with targeting and/or antimicrobial activity)”, the “Target(s) (microorganisms bound by the targeting peptide)” value in the assay on bacteria is given as “S. epidermidis; also recorded: E. coli; also recorded: C. albicans; also recorded: S. pneumoniae; also recorded: E. faecalis; also recorded: C. jeikeium”. Besides, the “Organism, effect (morphology, biofilm and growth disruption)” value with microorganisms [1] (C. jeikeium) was “C. jeikeium (D)”; with microorganisms [1] (E. coli) it was “E. coli (R)”; with microorganisms [1] (E. faecalis) it was “E. faecalis (D)”; with microorganisms [1] (MRSA) it was “MRSA (D)”; with microorganisms [1] (S. epidermidis), “S. epidermidis (D)”; in the assay with microorganisms [1] (S. pneumoniae), “S. pneumoniae (D)”. In addition, in the assay with microorganisms [2], the Activities result is “G B”.

In the case of “PF-549 (TGIGPIARPIEHGLDS; Peptide with targeting and/or antimicrobial activity)”, the “Target(s) (microorganisms bound by the targeting peptide)” value in the assay on bacteria is recorded as “E. coli; also recorded: C. albicans; also recorded: S. pneumoniae; also recorded: C. jeikeium”. Also, the “Organism, effect (morphology, biofilm and growth disruption)” value is listed as “B. subtilis (D)” with microorganisms [1] (B. subtilis) and “MRSA (C)” in the assay on microorganisms [1] (MRSA). Also, in the assay on microorganisms [2], the Activities entry is recorded as “G B”.

Take “PF-550 (STENGWQEFESYADVGVDPRRYVPL; Peptide with targeting and/or antimicrobial activity)”: in the assay on bacteria, the “Target(s) (microorganisms bound by the targeting peptide)” value is recorded as “S. pneumoniae”. The “Organism, effect (morphology, biofilm and growth disruption)” value in the assay with microorganisms [1] (B. subtilis) is on record as “B. subtilis (D)”. Further, in the assay with microorganisms [2], the Activities result is recorded as “G B”.

“PF-551 (QVKEKRREIELQFRDAEKKLEASVQAE; Peptide with targeting and/or antimicrobial activity)”: the “Target(s) (microorganisms bound by the targeting peptide)” value in the assay on bacteria is “S. pneumoniae”. In addition, in the assay on microorganisms [1] (MRSA), the “Organism, effect (morphology, biofilm and growth disruption)” value is on record as “MRSA (C)”. Moreover, the Activities result in the assay on microorganisms [2] is given as “G B”.

Take “PF-552 (ELDKADAALGPAKNLAPLDVINRS; Peptide with targeting and/or antimicrobial activity)”: in the assay with bacteria, the “Target(s) (microorganisms bound by the targeting peptide)” value is recorded as “S. pneumoniae”. The “Organism, effect (morphology, biofilm and growth disruption)” value with microorganisms [1] (B. subtilis) is “B. subtilis (D)”. In addition, the Activities entry in the assay with microorganisms [2] is reported as “G B”.

For “PF-553 (LTIVGNALQQKNQKLLLNQKKITSLG; Peptide with targeting and/or antimicrobial activity)”, in the assay on bacteria, the “Target(s) (microorganisms bound by the targeting peptide)” value is “S. epidermidis and E. coli and P. aeruginosa and C. albicans and MRSA and S. pneumoniae and C. jeikeium”. Also, the “Organism, effect (morphology, biofilm and growth disruption)” value was “B. subtilis (D)” in the assay on microorganisms [1] (B. subtilis), “C. jeikeium (R)” in the assay with microorganisms [1] (C. jeikeium), “MRSA (M)” with microorganisms [1] (MRSA) and “S. pneumoniae (R)” in the assay with microorganisms [1] (S. pneumoniae). The Activities result in the assay with microorganisms [2] is “G B”.

Take “PF-554 (AKNFLTRTAEEIGEQAVREGNINGP; Peptide with targeting and/or antimicrobial activity)”: the “Target(s) (microorganisms bound by the targeting peptide)” value in the assay on bacteria is given as “S. pneumoniae”. Moreover, the “Organism, effect (morphology, biofilm and growth disruption)” value with microorganisms [1] (B. subtilis) is recorded as “B. subtilis (D)”. Moreover, the Activities result in the assay on microorganisms [2] is recorded as “G B”.
